What was measured:
EPHA5 = biological target: T1, EPHA5 (Homo sapiens, UniProt P54756); assay: Kinase panel profiling at 1 µmol/L (mobility shift assay, Carna); format: biochemical; details: 1 µmol/L of BTK inhibitor
T1 construct: purchased Carna Biosciences

LCK = biological target: T2, LCK (Homo sapiens, UniProt P06239); assay: as above; format: biochemical; details: 1 µmol/L of BTK inhibitor
T2 construct: purchased Carna Biosciences

LATS2 = biological target: T3, LATS2 (Homo sapiens, UniProt Q9NRM7); assay: as above; format: biochemical; details: 1 µmol/L of BTK inhibitor
T3 construct: purchased Carna Biosciences
T3 sequence (Q9NRM7 1-1088): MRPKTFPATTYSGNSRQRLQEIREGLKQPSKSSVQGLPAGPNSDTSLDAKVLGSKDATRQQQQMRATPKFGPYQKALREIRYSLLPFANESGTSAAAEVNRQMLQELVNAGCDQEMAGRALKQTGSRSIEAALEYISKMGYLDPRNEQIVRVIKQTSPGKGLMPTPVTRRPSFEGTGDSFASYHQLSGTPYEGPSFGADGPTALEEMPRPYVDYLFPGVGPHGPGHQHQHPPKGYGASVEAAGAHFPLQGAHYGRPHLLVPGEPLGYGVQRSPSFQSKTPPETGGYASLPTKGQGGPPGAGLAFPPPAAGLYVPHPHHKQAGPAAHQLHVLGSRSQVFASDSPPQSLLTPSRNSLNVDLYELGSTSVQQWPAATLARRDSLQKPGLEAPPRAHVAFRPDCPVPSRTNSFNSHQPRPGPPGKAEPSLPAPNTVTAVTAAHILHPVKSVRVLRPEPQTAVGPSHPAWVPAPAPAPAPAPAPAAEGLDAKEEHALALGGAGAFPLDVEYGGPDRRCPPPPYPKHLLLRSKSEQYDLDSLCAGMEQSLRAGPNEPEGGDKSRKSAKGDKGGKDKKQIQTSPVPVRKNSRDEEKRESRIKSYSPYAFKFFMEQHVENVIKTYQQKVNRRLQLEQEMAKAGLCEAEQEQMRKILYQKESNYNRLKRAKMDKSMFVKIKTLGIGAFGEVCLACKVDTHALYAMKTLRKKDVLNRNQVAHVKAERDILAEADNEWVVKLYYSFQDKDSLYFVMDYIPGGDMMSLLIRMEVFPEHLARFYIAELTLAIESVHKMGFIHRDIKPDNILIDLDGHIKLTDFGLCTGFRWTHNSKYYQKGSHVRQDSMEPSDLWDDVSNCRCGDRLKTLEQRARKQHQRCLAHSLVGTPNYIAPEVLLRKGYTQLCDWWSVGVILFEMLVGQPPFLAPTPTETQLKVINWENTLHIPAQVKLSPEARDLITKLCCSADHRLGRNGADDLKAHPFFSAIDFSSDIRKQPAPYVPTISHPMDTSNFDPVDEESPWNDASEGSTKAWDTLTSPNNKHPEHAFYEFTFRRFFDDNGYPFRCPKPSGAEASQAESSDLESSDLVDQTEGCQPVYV

MARK4 = biological target: T4, MARK4 (Homo sapiens, UniProt Q96L34); assay: as above; format: biochemical; details: 1 µmol/L of BTK inhibitor
T4 construct: purchased Carna Biosciences
T4 sequence (Q96L34 1-752): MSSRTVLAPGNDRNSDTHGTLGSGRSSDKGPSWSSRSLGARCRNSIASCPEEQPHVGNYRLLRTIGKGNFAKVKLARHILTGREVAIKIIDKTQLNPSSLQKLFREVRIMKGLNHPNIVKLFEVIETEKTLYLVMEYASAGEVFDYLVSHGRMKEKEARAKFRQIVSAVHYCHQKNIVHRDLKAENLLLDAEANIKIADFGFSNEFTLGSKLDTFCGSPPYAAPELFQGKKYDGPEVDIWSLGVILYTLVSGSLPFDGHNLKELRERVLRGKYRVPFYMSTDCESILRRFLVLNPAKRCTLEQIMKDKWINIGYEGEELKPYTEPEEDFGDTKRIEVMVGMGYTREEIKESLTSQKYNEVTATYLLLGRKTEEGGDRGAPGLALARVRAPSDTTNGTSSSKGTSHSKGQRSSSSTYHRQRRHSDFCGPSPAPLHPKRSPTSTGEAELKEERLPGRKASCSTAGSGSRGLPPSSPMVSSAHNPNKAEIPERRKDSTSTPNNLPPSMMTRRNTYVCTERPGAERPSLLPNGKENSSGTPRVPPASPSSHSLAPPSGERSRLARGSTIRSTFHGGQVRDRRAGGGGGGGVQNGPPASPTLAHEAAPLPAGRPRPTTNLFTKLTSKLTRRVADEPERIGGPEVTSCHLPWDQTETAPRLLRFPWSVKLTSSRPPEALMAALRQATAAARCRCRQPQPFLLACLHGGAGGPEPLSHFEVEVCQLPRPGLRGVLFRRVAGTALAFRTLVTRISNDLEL

MELK = biological target: T5, MELK (Homo sapiens, UniProt Q14680); assay: as above; format: biochemical; details: 1 µmol/L of BTK inhibitor
T5 construct: purchased Carna Biosciences
T5 sequence (Q14680 whole entry): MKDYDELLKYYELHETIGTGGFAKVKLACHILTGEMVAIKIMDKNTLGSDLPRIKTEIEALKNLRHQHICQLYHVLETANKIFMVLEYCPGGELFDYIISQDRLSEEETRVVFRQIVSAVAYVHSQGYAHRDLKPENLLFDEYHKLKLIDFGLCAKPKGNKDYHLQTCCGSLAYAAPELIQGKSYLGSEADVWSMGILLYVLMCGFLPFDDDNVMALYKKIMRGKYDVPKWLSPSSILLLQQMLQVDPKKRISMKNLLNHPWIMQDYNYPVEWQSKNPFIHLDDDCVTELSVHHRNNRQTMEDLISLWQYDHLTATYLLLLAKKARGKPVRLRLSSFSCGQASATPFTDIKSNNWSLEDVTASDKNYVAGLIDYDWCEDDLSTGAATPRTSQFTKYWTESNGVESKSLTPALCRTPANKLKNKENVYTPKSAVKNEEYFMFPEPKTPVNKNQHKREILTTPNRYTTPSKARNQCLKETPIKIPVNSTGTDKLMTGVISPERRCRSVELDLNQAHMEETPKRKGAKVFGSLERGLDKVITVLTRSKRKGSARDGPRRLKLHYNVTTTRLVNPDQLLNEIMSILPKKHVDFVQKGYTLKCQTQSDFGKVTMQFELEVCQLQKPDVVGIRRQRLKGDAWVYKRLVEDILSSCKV

NuaK1 = biological target: T6, NuaK1 (Homo sapiens, UniProt O60285); assay: as above; format: biochemical; details: 1 µmol/L of BTK inhibitor
T6 construct: purchased Carna Biosciences
T6 sequence (O60285 1-661): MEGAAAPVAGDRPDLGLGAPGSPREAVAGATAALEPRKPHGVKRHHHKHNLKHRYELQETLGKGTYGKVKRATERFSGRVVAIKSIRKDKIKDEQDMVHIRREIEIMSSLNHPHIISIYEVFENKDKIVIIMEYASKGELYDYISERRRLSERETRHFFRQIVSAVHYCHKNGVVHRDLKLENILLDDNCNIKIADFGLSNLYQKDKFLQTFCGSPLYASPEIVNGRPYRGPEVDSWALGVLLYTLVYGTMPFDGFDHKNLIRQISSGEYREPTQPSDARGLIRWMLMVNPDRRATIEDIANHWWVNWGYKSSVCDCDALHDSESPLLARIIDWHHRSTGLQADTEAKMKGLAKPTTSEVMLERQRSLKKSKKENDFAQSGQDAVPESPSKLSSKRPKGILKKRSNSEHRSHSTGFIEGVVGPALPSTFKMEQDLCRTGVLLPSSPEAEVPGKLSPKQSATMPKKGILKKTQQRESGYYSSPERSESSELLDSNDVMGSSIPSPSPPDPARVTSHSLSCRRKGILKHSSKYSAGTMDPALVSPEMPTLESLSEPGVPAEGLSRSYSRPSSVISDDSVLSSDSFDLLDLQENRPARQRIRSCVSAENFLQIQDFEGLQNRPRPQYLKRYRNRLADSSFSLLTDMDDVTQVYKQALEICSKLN

ERK1 = ERK1 (Homo sapiens, UniProt P27361); assay: Kinase enzyme activity assay (mobility shift assay, Carna); details: for Percentage inhibition of kinase enzyme activity: Erk1, 1 µmol/L of BTK inhibitor
Chain of ERK1 (P27361 whole entry): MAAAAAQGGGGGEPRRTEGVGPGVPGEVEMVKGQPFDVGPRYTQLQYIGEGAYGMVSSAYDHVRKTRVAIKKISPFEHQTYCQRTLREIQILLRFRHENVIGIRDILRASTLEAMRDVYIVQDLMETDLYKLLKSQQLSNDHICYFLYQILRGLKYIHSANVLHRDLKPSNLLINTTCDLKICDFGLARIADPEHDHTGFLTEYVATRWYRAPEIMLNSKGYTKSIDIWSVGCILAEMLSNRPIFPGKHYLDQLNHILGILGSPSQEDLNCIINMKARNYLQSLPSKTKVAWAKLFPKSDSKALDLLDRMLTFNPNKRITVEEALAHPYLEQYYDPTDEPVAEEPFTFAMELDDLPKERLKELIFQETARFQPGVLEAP

T1 sequence (P54756 25-1037): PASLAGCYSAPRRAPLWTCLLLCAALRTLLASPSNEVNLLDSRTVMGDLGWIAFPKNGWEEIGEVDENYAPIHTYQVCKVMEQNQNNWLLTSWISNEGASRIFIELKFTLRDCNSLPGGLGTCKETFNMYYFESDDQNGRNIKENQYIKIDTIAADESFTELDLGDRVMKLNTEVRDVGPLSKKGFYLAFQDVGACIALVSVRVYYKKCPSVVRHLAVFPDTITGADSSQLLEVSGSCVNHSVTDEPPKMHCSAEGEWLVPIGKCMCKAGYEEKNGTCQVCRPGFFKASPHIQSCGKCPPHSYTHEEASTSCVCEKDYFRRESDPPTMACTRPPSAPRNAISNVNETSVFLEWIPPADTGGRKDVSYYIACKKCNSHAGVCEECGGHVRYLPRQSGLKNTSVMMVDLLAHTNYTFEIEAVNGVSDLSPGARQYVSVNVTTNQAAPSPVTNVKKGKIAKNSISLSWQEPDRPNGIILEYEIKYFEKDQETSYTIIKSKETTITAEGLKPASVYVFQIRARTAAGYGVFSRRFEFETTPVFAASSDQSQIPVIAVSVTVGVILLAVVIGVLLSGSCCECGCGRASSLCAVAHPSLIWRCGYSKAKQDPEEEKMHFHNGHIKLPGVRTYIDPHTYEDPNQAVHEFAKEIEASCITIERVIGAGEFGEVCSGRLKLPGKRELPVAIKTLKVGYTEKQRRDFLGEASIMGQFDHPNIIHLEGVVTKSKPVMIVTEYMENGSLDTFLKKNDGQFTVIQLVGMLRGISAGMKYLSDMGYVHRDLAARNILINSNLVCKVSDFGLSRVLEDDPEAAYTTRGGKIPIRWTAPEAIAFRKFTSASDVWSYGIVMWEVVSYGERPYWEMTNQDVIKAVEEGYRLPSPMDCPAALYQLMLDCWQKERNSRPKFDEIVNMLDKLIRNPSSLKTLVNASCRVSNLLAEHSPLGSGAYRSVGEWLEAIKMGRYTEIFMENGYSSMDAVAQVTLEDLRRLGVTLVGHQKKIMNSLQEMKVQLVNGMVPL
T2 sequence (P06239 whole entry): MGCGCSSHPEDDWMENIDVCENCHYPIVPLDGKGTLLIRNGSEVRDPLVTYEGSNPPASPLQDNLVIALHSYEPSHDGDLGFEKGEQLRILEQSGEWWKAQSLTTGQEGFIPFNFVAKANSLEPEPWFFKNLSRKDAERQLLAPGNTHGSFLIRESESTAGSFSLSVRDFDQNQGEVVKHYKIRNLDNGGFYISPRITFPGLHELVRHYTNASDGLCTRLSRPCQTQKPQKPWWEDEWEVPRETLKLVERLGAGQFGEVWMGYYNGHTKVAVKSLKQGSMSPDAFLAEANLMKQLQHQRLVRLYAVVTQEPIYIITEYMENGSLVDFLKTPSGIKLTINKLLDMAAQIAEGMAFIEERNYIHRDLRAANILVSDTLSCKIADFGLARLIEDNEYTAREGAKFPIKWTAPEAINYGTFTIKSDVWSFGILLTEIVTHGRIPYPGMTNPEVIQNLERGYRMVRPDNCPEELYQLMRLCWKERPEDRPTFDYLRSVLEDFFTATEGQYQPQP

Compound	Percentage inhibition of kinase enzyme activity (EPHA5)	Percentage inhibition of kinase enzyme activity (LCK)	Percentage inhibition of kinase enzyme activity (LATS2)	Percentage inhibition of kinase enzyme activity (MARK4)	Percentage inhibition of kinase enzyme activity (MELK)	Percentage inhibition of kinase enzyme activity (NuaK1)	Percentage inhibition of kinase enzyme activity (ERK1)	IC50 (ERK1)	Inhibition of ERK1 (ERK1)
CC#CC(=O)N1CCC[C@H]1c1nc(-c2ccc(C(=O)Nc3ccccn3)cc2)c2c(N)nccn12 [acalabrutinib]	-1.17%	6.84%	-7.45%	-15.24%	-0.54%	-3.51%	-2.38%	–	–
C=CC(=O)N1CCC[C@@H](n2nc(-c3ccc(Oc4ccccc4)cc3)c3c(N)ncnc32)C1 [ibrutinib]	25.73%	100.25%	5.45%	-14.26%	8.08%	6.70%	1.74%	–	–
O=C(c1ccc(Oc2ccccc2)cc1Cl)c1c[nH]c2ncnc(N[C@@H]3CC[C@@H](CO)OC3)c12 [nemtabrutinib]	100.38%	70.86%	70.96%	20.90%	81.25%	3.95%	61.74%	0.543 µM	did not inhibit
COc1ccc(F)cc1C(=O)NCc1ccc(-c2nn([C@@H](C)C(F)(F)F)c(N)c2C(N)=O)cc1 [pirtobrutinib]	0.45%	30.64%	2.57%	-2.93%	-5.13%	4.02%	-1.16%	–	–
C=CC(=O)N1CCC([C@@H]2CCNc3c(C(N)=O)c(-c4ccc(Oc5ccccc5)cc4)nn32)CC1 [zanubrutinib]	13.96%	0.21%	–	–	–	–	–	–	–

Source: PMC12586182 (Frontiers in Oncology, 2025)
